In brackets after ≈: the same amount, converted by molar mass.
Legend:
[1] = tested on: A. fumigatus A1160 (MFIG001); details: Aspergillus fumigatus, read-out: MIC99 A. fumigatus A1160
Fusarium oxysporum = assay: Expanded set of filamentous fungi, MIC broth microdilution (CLSI); type: cell-based; details: MIC at 50% inhibition
C. albicans = assay: Expanded set of yeasts, MIC broth microdilution (CLSI); type: cell-based; details: MIC at 50% inhibition; for MIC50: Candida albicans
[2] = tested on: PolyAU double stranded RNA; assay: Fluorescence intercalator displacement (FID) assay, SYBR-safe probe; details: 20 μM compound, 30° C., lower % = stronger binding
Method in brief: (§1)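 Probe displacement was measured at 30 °C in 1 mM phosphate pH 7.4 containing SybrSafe (12500-fold dilution), 3.76 ng/mL nucleic acid (salmon dsDNA or polyAU dsRNA) and 20 μM compound. Fluorescence loss is normalised between probe-only and probe-plus-nucleic-acid controls.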

[3] = tested on: Genomic double stranded DNA (salmon); assay: as above; details: 20 μM compound, 30° C., lower % = stronger binding
Method in brief: as §1

[4] = tested on: Enterococcus faecalis (ATCC 51299); assay: Antibacterial MIC, broth microdilution (CLSI); type: cell-based; details: Enterococcus faecalis, ATCC51299; read-out: MIC80 E. faecalis
Aspergillus fumigatus = assay: Expanded set of filamentous fungi, MIC broth microdilution (CLSI); type: cell-based
Scedosporium spp. = assay: as above; type: cell-based
C. krusei = assay: Expanded set of yeasts, MIC broth microdilution (CLSI); type: cell-based; details: Pichia kudriavzevii, ATCC6258; isolate ATCC 6258; MIC at 50% inhibition
C. auris = assay: as above; type: cell-based; details: MIC at 50% inhibition
[5] = tested on: Scedosporium prolificans (F2746); details: Lomentospora prolificans, read-out: MIC99 Scedosporium prolificans
Procedure: (§2) The Minimum Inhibitory Concentration (MIC, at 99% inhibition) of the compounds was determined using the broth microdilution method as recommended by EUCAST (EUCAST Definitive Document E.DEF 9.3.2, Method for the determination of broth dilution minimum inhibitory concentrations of antifungal agents for conidia forming moulds and EUCAST Definitive Document E.DEF 7.3.2 Method for the determination of broth dilution minimum inhibitory concentrations of antifungal agents for yeasts).

[6] = tested on: Candida glabrata (ACPF3309); details: Nakaseomyces glabratus, read-out: MIC99 Candida glabrata
C. glabrata = assay: Expanded set of yeasts, MIC broth microdilution (CLSI); type: cell-based; details: Nakaseomyces glabratus, MIC at 50% inhibition
C. neoformans (F10025) = details: Cryptococcus neoformans, read-out: MIC99 C. neoformans
[7] = tested on: Escherichia coli (ATCC 25922); assay: Antibacterial MIC, broth microdilution (CLSI); type: cell-based; details: Escherichia coli, ATCC25922; read-out: MIC80 E. coli
[8] = tested on: Rhizopus arrhizus (NEQAS12.35321); details: read-out: MIC99 Rhizopus arrhizus
[9] = tested on: Staphylococcus aureus (ATCC 43300); assay: Antibacterial MIC, broth microdilution (CLSI); type: cell-based; details: Staphylococcus aureus, ATCC43300; read-out: MIC80 S. aureus
A. flavus (CBS 128.202) = details: Aspergillus flavus, CBS128, read-out: MIC99 A. flavus
Procedure: as §2

C. albicans (ATCC 90028) = details: Candida albicans, ATCC90028, read-out: MIC99 C. albicans
Procedure: as §2

Aspergillus flavus = assay: Expanded set of filamentous fungi, MIC broth microdilution (CLSI); type: cell-based; details: MIC at 50% inhibition; for MIC50: Aspergillus flavus
Candida auris (H.17.157) = details: Candidozyma auris, read-out: MIC99 Candida auris

C/N=C(\CCNC(=O)c1cc(NC(=O)c2cc(NC(=O)c3ccc(/C=C/c4ccc(N(C)C)cc4)nc3)cn2C)cn1C)NC [Ia8, 6-((E)-4-(dimethylamino)styryl)-N-(1-methyl-5-((1-methyl-5-(((E)-3-(methylamino)-3-(methylimino)propyl)carbamoyl)-1H-pyrrol-3-yl)carbamoyl)-1H-pyrrol-3-yl)nicotinamide]
MIC99 [1]: 5 to 25 µg/mL (≈ 8.2 to 41 µM)
MIC50 (Fusarium oxysporum; Fusarium oxysporum, isolate F2): ≤ 1 µg/mL
MIC50 Fusarium oxysporum (Fusarium oxysporum; isolate F3): *** (*** means MIC50 <= 1 μg/mL)
MIC50 (C. albicans; isolate CA3): 1 to 8 µg/mL (≈ 1.64 to 13.1 µM)
MIC50 (C. albicans; isolate SC5314): 1 to 8 µg/mL (≈ 1.64 to 13.1 µM)
MIC50 C. albicans (C. albicans; isolate CA90028): ** (** means 1 μg/mL < MIC50 <= 8 μg/mL)
% Normalised Fluorescence with polyAU RNA [2]: 9%
% Normalised Fluorescence with gDNA [3]: 4%
MIC80 [4]: 25 to 100 µM (≈ 15.2 to 61 µg/mL)
MIC50 (Aspergillus fumigatus; isolate AF293, MIC at 50% inhibition): 1 to 8 µg/mL (≈ 1.64 to 13.1 µM)
MIC50 (Aspergillus fumigatus; isolate DI15-106, MIC at 50% inhibition): 1 to 8 µg/mL (≈ 1.64 to 13.1 µM)
MIC50 (Aspergillus fumigatus; isolate DI15-116, MIC at 50% inhibition): 1 to 8 µg/mL (≈ 1.64 to 13.1 µM)
MIC50 (Aspergillus fumigatus; isolate DI19-187, MIC at 50% inhibition): 1 to 8 µg/mL (≈ 1.64 to 13.1 µM)
MIC50 (Aspergillus fumigatus; isolate DI19-230, MIC at 50% inhibition): 1 to 8 µg/mL (≈ 1.64 to 13.1 µM)
MIC50 (Aspergillus fumigatus; isolate DI19-231, MIC at 50% inhibition): 1 to 8 µg/mL (≈ 1.64 to 13.1 µM)
MIC50 (Aspergillus fumigatus; isolate DI19-232, MIC at 50% inhibition): 1 to 8 µg/mL (≈ 1.64 to 13.1 µM)
MIC50 (Aspergillus fumigatus; isolate DI19-233, MIC at 50% inhibition): 1 to 8 µg/mL (≈ 1.64 to 13.1 µM)
MIC50 (Aspergillus fumigatus; isolate DI19-234, MIC at 50% inhibition): 1 to 8 µg/mL (≈ 1.64 to 13.1 µM)
MIC50 (Aspergillus fumigatus; isolate DI19-236, MIC at 50% inhibition): 1 to 8 µg/mL (≈ 1.64 to 13.1 µM)
MIC50 (Aspergillus fumigatus; isolate DI19-237, MIC at 50% inhibition): 1 to 8 µg/mL (≈ 1.64 to 13.1 µM)
MIC50 (Aspergillus fumigatus; isolate DI20-95, MIC at 50% inhibition): 1 to 8 µg/mL (≈ 1.64 to 13.1 µM)
MIC50 (Aspergillus fumigatus; isolate DI20-103, MIC at 50% inhibition): 1 to 8 µg/mL (≈ 1.64 to 13.1 µM)
MIC50 (Scedosporium spp.; isolate S1, MIC at 50% inhibition): 1 to 8 µg/mL (≈ 1.64 to 13.1 µM)
MIC50 (Scedosporium spp.; isolate S3, MIC at 50% inhibition): 1 to 8 µg/mL (≈ 1.64 to 13.1 µM)
MIC50 (C. krusei): 1 to 8 µg/mL (≈ 1.64 to 13.1 µM)
MIC50 (C. auris; Candidozyma auris, isolate DI17-47): 1 to 8 µg/mL (≈ 1.64 to 13.1 µM)
MIC50 C. auris (C. auris; isolate DI17-46): ** (** means 1 μg/mL < MIC50 <= 8 μg/mL)
MIC50 C. auris (C. auris; isolate DI17-48): ** (** means 1 μg/mL < MIC50 <= 8 μg/mL)
MIC99 [5]: 5 to 25 µg/mL (≈ 8.2 to 41 µM)
MIC99 [6]: 5 to 25 µg/mL (≈ 8.2 to 41 µM)
MIC50 (C. glabrata; isolate 05-62): 1 to 8 µg/mL (≈ 1.64 to 13.1 µM)
MIC50 (C. glabrata; isolate 05-761): 1 to 8 µg/mL (≈ 1.64 to 13.1 µM)
MIC50 (C. glabrata; isolate CG3): 1 to 8 µg/mL (≈ 1.64 to 13.1 µM)
MIC99 (C. neoformans (F10025)): 5 to 25 µg/mL (≈ 8.2 to 41 µM)
MIC80 [7]: > 100 µM
MIC99 [8]: 5 to 25 µg/mL (≈ 8.2 to 41 µM)
MIC80 [9]: 5 to 25 µM (≈ 3.05 to 15.2 µg/mL)
MIC99 (A. flavus (CBS 128.202)): < 5 µg/mL
MIC99 (C. albicans (ATCC 90028)): 25 to 50 µg/mL (≈ 41 to 82 µM)
MIC50 (Aspergillus flavus; ATCC204304, isolate ATCC 204304): 1 to 8 µg/mL (≈ 1.64 to 13.1 µM)
MIC50 (Aspergillus flavus; isolate Aflav2): 1 to 8 µg/mL (≈ 1.64 to 13.1 µM)
MIC50 Aspergillus flavus (Aspergillus flavus; isolate Aflav3): ** (** means 1 μg/mL < MIC50 <= 8 μg/mL)
MIC99 (Candida auris (H.17.157)): > 50 µg/mL

Reference: patent US20250313546A1, “NUCLEIC ACID BINDERS” (UNIVERSITY OF STRATHCLYDE, priority 2022, published 2025)
